Experimental data taken from patent US7550587B2, “Photosensitizer and method for production thereof” (priority 2001, dated 2009).

Conditions: mouse, in vivo
Procedure: The mice were slaughtered 3 hours after injection (each group consisted of 3 mice). The materials of liver, kidney, spleen, lungs, small intestines, tumor, surrounding muscle tissue as well as from blood, urine, faeces from large intestine weighing 100 mg each were thoroughly homogenised in glass homogenizers supplementing 4 ml of saline solution. For examination of biological fluids (blood, urine) 0,1 ml of each fluid were taken with subsequent dissolution in 4 ml of saline solution. The resulting homogenates were studied on “Perkin-Elmer” spectrofluorimeter (MPF-44A model).

time interval of tumour accumulation optimal for photodynamic effect according to selectivity: 3 to 18 h
Substance: 13-carboxy-17-[2-carboxyethyl]-15-formyl-17,18-trans-dihydro-3-vinyl-8-ethyl-2,7,12,18-tetramethylporphyrin [purpurin 5]
